Values of other authors as cited in patent US9161933B2, “Solid pharmaceutical composition comprising amlodipine and losartan and process for producing same” (HANMI SCIENCE CO., LTD, priority 2009, dated 2015).

Conditions: after food absorption

## CCCCc1nc(Cl)c(CO)n1Cc1ccc(-c2ccccc2-c2nn[nH]n2)cc1 [losartan, 2-butyl-4-chloro-1-[[2′-(1H-tetrazol-5-yl)[1,1′-biphenyl]-4-yl]methyl]-1H-imidazol-5-methanol]
  reduction of Cmax of losartan: about 10%
